Data from the NIST ThermoML archive (doi:10.1021/acs.jced.9b00752).
Numbers after ± are expanded uncertainties.

Assay: mn = molality of the nth substance listed, in mol/kg
Details: 100 kPa, Liquid, Vibrating tube method

O=C(O)[C@@H]1CCCN1 [L-proline] + O
mass density [kg/m3]
Details | 278.65 K | 279.15 K | 279.65 K | 280.15 K | 280.65 K | 281.15 K | 281.65 K | 282.15 K | 282.65 K | 283.15 K
m1 = 0.0132 | 1000.41 ± 0.11 | 1000.39 ± 0.11 | 1000.38 ± 0.11 | 1000.35 ± 0.11 | 1000.33 ± 0.11 | 1000.3 ± 0.11 | 1000.27 ± 0.11 | 1000.23 ± 0.11 | 1000.19 ± 0.11 | 1000.15 ± 0.11
m1 = 0.0326 | 1001.08 ± 0.11 | 1001.06 ± 0.11 | 1001.04 ± 0.11 | 1001.02 ± 0.11 | 1000.99 ± 0.11 | 1000.97 ± 0.11 | 1000.93 ± 0.11 | 1000.89 ± 0.11 | 1000.85 ± 0.11 | 1000.81 ± 0.11
m1 = 0.0542 | 1001.81 ± 0.11 | 1001.79 ± 0.11 | 1001.77 ± 0.11 | 1001.75 ± 0.11 | 1001.72 ± 0.11 | 1001.69 ± 0.11 | 1001.66 ± 0.11 | 1001.62 ± 0.11 | 1001.57 ± 0.11 | 1001.53 ± 0.11
m1 = 0.0692 | 1002.32 ± 0.11 | 1002.3 ± 0.11 | 1002.27 ± 0.11 | 1002.25 ± 0.11 | 1002.22 ± 0.11 | 1002.19 ± 0.11 | 1002.15 ± 0.11 | 1002.12 ± 0.11 | 1002.07 ± 0.11 | 1002.03 ± 0.11
m1 = 0.0808 | 1002.71 ± 0.11 | 1002.7 ± 0.11 | 1002.67 ± 0.11 | 1002.64 ± 0.11 | 1002.61 ± 0.11 | 1002.59 ± 0.11 | 1002.55 ± 0.11 | 1002.5 ± 0.11 | 1002.46 ± 0.11 | 1002.41 ± 0.11
m1 = 0.1014 | 1003.42 ± 0.11 | 1003.4 ± 0.11 | 1003.37 ± 0.11 | 1003.35 ± 0.11 | 1003.31 ± 0.11 | 1003.28 ± 0.11 | 1003.25 ± 0.11 | 1003.2 ± 0.11 | 1003.16 ± 0.11 | 1003.11 ± 0.11
m1 = 0.1196 | 1004.08 ± 0.11 | 1004.06 ± 0.11 | 1004.03 ± 0.11 | 1004 ± 0.11 | 1003.97 ± 0.11 | 1003.94 ± 0.11 | 1003.9 ± 0.11 | 1003.86 ± 0.11 | 1003.81 ± 0.11 | 1003.76 ± 0.11
m1 = 0.1326 | 1004.49 ± 0.11 | 1004.47 ± 0.11 | 1004.44 ± 0.11 | 1004.41 ± 0.11 | 1004.38 ± 0.11 | 1004.35 ± 0.11 | 1004.31 ± 0.11 | 1004.26 ± 0.11 | 1004.21 ± 0.11 | 1004.16 ± 0.11
m1 = 0.1555 | 1005.24 ± 0.15 | 1005.21 ± 0.15 | 1005.19 ± 0.15 | 1005.15 ± 0.15 | 1005.12 ± 0.15 | 1005.09 ± 0.15 | 1005.04 ± 0.15 | 1005 ± 0.15 | 1004.95 ± 0.15 | 1004.9 ± 0.15
m1 = 0.1568 | 1005.37 ± 0.15 | 1005.35 ± 0.15 | 1005.32 ± 0.15 | 1005.29 ± 0.15 | 1005.25 ± 0.15 | 1005.22 ± 0.14 | 1005.18 ± 0.15 | 1005.13 ± 0.15 | 1005.08 ± 0.15 | 1005.03 ± 0.15
m1 = 0.1835 | 1006.18 ± 0.11 | 1006.15 ± 0.11 | 1006.12 ± 0.11 | 1006.09 ± 0.11 | 1006.05 ± 0.11 | 1006.02 ± 0.11 | 1005.98 ± 0.11 | 1005.93 ± 0.11 | 1005.88 ± 0.11 | 1005.83 ± 0.11
m1 = 0.2076 | 1006.97 ± 0.11 | 1006.94 ± 0.11 | 1006.91 ± 0.11 | 1006.87 ± 0.11 | 1006.83 ± 0.11 | 1006.8 ± 0.11 | 1006.75 ± 0.11 | 1006.7 ± 0.11 | 1006.65 ± 0.11 | 1006.6 ± 0.11
m1 = 0.2212 | 1007.63 ± 0.12 | 1007.6 ± 0.12 | 1007.57 ± 0.12 | 1007.53 ± 0.12 | 1007.5 ± 0.12 | 1007.46 ± 0.12 | 1007.41 ± 0.12 | 1007.36 ± 0.12 | 1007.31 ± 0.12 | 1007.26 ± 0.12
